Measured values taken from US9814787B2, “Luciferin amides” (University of Massachusetts, priority 2013, dated 2017).

Columns and labels:
[1] = system: FVB mice expressing luciferase in brain tissue; experiment: In vivo bioluminescence imaging in brains of FVB mice injected with AAV9-luc+ in the striatum; details: for light emission in brains of live mice (qualitative): mouse, in vivo
Procedure: (§1) FVB mice were injected with AAV9-luc+ in the brain striatum. Bioluminescence assays were performed approximately nine months after AAV injection. Each luciferin amide was diluted into PBS to the indicated concentration from a 50 mM DMSO stock solution and filtered (0.22 μm) prior to intraperitoneally injection (0.1 mL per mouse). Mice were anesthetized with isoflurane (2% in 1 L/min oxygen) and images acquired on a Xenogen IVIS 100 imaging system and analyzed with Living Image software.
Certain luciferin amides described herein were tested to determine whether they would image well in live mice. For these studies, FVB mice were injected with adeno-associated virus 9 (AAV9)-luciferase constructs into the brain striatum.
Bioluminescence imaging (BLI) in the brain is more challenging than imaging in the rest of the organism, in part because a luciferase substrate (i.e., a luciferin) must cross the blood-brain barrier. Therefore, the ability of a synthetic luciferin (i.e., Compound 9's corresponding luciferin (CycLuc1)) to allow bioluminescence imaging in these mice, as compared to the native firefly luciferase substrate (i.e., D-luciferin) was first tested. Specifically, each substrate was injected intraperitoneally (IP) in PBS at a volume of 0.1 mL, D-luciferin being at a concentration of 100 mM and CycLuc1 being at a concentration of 5 mM. […] CycLuc1 was then injected at a 320-fold lower dose (0.06 mL of 0.5 mM) than D-luciferin.
Specifically, Compound 9 (i.e., CycLuc1 amide) was injected at 0.5 mM in 0.5% DMSO/PBS (0.06 mL).
In this figure, mice in the top row were treated with luciferin amides in the amounts indicated in the figure, and the mice in the bottom row were the same mice that were imaged one day later using a standard dose of D-luciferin.

[2] = biological target: T1, FAAH (Homo sapiens, UniProt O00519); experiment: In vitro FAAH assay: luciferin amide treated with recombinant FAAH, then R218K luciferase, bioluminescence; type: biochemical
T1 construct: purchased Cayman Chemical
T1 sequence (O00519 1-579): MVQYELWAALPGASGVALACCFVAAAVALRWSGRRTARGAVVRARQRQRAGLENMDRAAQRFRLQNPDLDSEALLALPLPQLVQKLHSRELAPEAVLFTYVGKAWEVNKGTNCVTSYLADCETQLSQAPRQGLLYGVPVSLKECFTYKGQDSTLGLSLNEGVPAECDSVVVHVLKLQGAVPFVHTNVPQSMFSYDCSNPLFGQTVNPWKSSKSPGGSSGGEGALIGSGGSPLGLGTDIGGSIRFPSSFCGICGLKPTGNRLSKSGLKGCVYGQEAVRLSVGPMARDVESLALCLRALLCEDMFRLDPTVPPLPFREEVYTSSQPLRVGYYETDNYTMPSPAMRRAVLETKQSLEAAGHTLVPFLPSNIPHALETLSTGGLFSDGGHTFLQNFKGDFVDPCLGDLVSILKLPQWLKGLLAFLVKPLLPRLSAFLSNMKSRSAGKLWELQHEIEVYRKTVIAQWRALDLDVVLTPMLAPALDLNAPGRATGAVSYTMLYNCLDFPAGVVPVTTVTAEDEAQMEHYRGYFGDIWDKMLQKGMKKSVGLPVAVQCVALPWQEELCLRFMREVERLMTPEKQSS
Procedure: Recombinant FAAH, FAAH assay buffer, and FAAH inhibitors URB-597, PF-750, and PF-3845 were purchased from Cayman Chemical.
Bioluminescence assays were performed in either a Turner Veritas luminometer or a Xenogen IVIS-100 imaging system. For Veritas experiments, white 96-well plates were used (Costar 3912). For IVIS experiments, black 96-well plates were used (Costar 3915).
Luciferin amides (50 μM) were treated with FAAH and FAAH buffer (Cayman Chemical) in the presence or absence of 50 μM FAAH inhibitor URB-597 or 50 μM luciferase inhibitor 2-(4′-methoxyphenyl)benzothiazole. After 10 minutes at room temperature, R218K mutant firefly luciferase was added at a concentration of 3 μg/mL and bioluminescence was detected on a Turner Veritas luminometer.
Four luciferin amides (50 μM), i.e., Compounds 1, 9, 10, and 25, were treated with a buffer alone, a buffer containing FAAH, a buffer containing FAAH+50 μM URB-597 (i.e., a FAAH inhibitor), or a buffer containing FAAH+50 μM luciferase inhibitor 2-(4′-methoxyphenyl)benzothiazole. After 10 minutes at room temperature, R218K luciferase was added at a concentration of 3 μg/mL and bioluminescence was detected on a Turner Veritas.
Three luciferin amides (50 μM), i.e., Compounds 2, 9, and 25, were treated with a buffer alone, a buffer containing FAAH, a buffer containing FAAH 1:10 (i.e., a ten-fold dilution of FAAH), a buffer containing pig liver esterase (PLE), or a buffer containing PLE 1:10 (i.e., a ten-fold dilution of PLE). After one hour at room temperature, R218K luciferase was added at a concentration of 3 μg/mL and bioluminescence was detected on a Turner Veritas.

[3] = system: live CHO cells expressing R218K luciferase; experiment: Intact cell FAAH assay, light emission from live CHO cells expressing R218K luciferase; type: cell-based, Chinese hamster; details: 50 μM FAAH inhibitor
Procedure: Chinese hamster ovary-K1 (CHO-K1) cells were grown in a CO2 incubator at 37° C. with 5% CO2 and were cultured in F-12K Nutrient Mixture (GIBCO) supplemented with 10% fetal bovine serum and 100 U/mL penicillin/streptomycin.
Wild-type and R218K mutant luciferases were cloned into the BamHI-NotI site of pCDNA 3.1 and transiently transfected into CHO-K1 cells with Lipofectamine 2000 in 96-well tissue culture-treated plates for intact cell assays, or 6-well plates for lysed cell assays. For intact cells, 0.075 μg plasmid/well was transfected; for lysed cells, 2.25 μg plasmid/well was transfected.
[…] The cells were incubated for one hour in the CO2 incubator at 37° C. Cells were then washed with Hank's balanced salt solution (HBSS) and overlaid with 60 μL a luciferin amide substrate in HBSS. Imaging assays were performed 3 minutes after substrate addition, with final substrate concentrations ranging from 0.122 to 250 μM.
Seven luciferin amides, i.e., Compounds 1-4, 9, 10, and 25, were tested in live CHO cells expressing R218K luciferase at various concentrations (i.e., 0.12 μM, 0.25 μM, 0.5 μM, 1 μM, 2 μM, 4 μM, 8 μM, 16 μM, 31 μM, 62 μM, 125 μM, and 250 μM).
Compound 25 and Compound 10, as well as their corresponding luciferins (i.e., D-Luciferin and CycLuc2, respectively), were tested in live CHO cells expressing wild-type (WT) luciferase or R218K (RK) luciferase at various concentrations (i.e., 0.125 μM, 0.25 μM, 0.5 μM, 1 μM, 2 μM, 4 μM, 8 μM, 16 μM, 31 μM, 62 μM, 125 μM, and 250 μM).

[4] = biological target: T2, FAAH (Mus musculus, UniProt O08914); experiment: In vivo FAAH inhibition assay with PF-3845; set-up: species or system mice; details: for total photon flux, average: 0.1 mM (0.1 mL) IP
T2 construct: metabolized into CycLuc1 by endogenous FAAH activity; from tissue; host or cells: brain (striatum) of live FVB mice expressing AAV9-delivered luciferase
T2 sequence (O08914 1-579): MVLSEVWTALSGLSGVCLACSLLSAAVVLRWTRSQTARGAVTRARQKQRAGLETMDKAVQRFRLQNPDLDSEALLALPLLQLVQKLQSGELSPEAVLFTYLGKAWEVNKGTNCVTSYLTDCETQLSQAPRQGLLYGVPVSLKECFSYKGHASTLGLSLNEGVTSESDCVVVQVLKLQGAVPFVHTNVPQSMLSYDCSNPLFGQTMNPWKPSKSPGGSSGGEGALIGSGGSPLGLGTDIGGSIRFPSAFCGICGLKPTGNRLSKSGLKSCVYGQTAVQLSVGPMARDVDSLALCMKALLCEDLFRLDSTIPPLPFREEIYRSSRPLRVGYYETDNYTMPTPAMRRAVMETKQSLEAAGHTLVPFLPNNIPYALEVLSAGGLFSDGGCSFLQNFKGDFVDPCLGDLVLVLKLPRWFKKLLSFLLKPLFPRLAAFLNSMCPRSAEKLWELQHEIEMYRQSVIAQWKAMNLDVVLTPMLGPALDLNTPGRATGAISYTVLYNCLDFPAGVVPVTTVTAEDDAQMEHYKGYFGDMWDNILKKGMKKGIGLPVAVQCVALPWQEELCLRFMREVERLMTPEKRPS
Procedure: as §1
Mice were injected intraperitoneally with 1 mg/mL of a specific FAAH inhibitor PF-3845 dissolved in 18:1:1 PBS:ethanol:emulphor (0.1 mL), or with an equal volume of 18:1:1 PBS:ethanol:emulphor control vehicle. Thirty minutes after injection, the mice were imaged as described above.
FAAH is highly expressed in most tissues, particularly in the brain. To determine whether the luciferin amides are cleaved exclusively by FAAH in the brain tissue, eight FVB mice expressing AAV9-luciferase in the striatum were divided into two groups: (1) four mice were injected IP with 1 mg/mL of a specific FAAH inhibitor PF-3845 dissolved in 18:1:1 PBS:ethanol:emulphor (0.1 mL), and (2) four mice were treated with an equal volume of 18:1:1 PBS:ethanol:emulphor control vehicle without PF-3845. After 30 minutes, one mouse from each group was IP injected with 5 mM CycLuc1 (i.e., Compound 9's corresponding luciferin) in PBS (0.1 mL), and three were injected with 0.1 mM Compound 5 in 0.2% DMSO/PBS (0.1 mL). The mice were imaged 10 minutes after substrate injection. Mice in the right panel were group (1) (i.e., treated with a FAAH inhibitor) and mice in the left panel were from group (2) (i.e., without being treated with a FAAH inhibitor).

With CCNc1ccc2nc(C3=N[C@@H](C(=O)NC)CS3)sc2c1 [Compound 7, (S)-2-(6-(ethylamino)benzo[d]thiazol-2-yl)-4,5-dihydro-N-methylthiazole-4-carboxamide] the “light emission in brains of live mice (qualitative)” value (“light emission in brains” for short) [1] was “relatively strong light emission”.

For CC(C)CNc1ccc2nc(C3=N[C@@H](C(N)=O)CS3)sc2c1 [Compound 3, (S)-4,5-dihydro-2-(6-(isobutylamino)benzo[d]-thiazol-2-yl)thiazole-4-carboxamide], the “light emission in brains” value [1] was “relatively strong light emission”.

NC(=O)[C@H]1CSC(c2nc3ccc(NCCCO)cc3s2)=N1 [Compound 4, (S)-2-(6-(3-hydroxypropylamino)benzo[d]-thiazol-2-yl)-4,5-dihydrothiazole-4-carboxamide] was tested, and the “light emission in brains” value [1] was “relatively weak light emission”.

CNc1ccc2nc(C3=N[C@@H](C(N)=O)CS3)sc2c1 [Compound 1, (S)-4,5-dihydro-2-(6-(methylamino)benzo[d]-thiazol-2-yl)thiazole-4-carboxamide] was tested, and the “light emission in brains” value [1] was “relatively strong light emission” and the “increase in bioluminescence signal on addition of FAAH versus buffer” value ([2]; 50 μM luciferin amide, 10 minutes at room temperature, R218K luciferase 3 μg/mL) was 167 fold.

With O=C(O)[C@H]1CSC(c2nc3ccc(O)cc3s2)=N1 [D-luciferin, reference compound] the “Photon flux after treatment with luciferin analogs” value ([1]; 100 mM) was 1.21E+06 p/s.

CN1CCc2cc3nc(C4=N[C@@H](C(=O)O)CS4)sc3cc21 [CycLuc2, reference compound] was tested, and the “effect of FAAH inhibitors URB-597, PF-750 and PF-3845 on light output” value [3] was “no significant effect”.

With “Me2N-luciferin methyl ester [reference compound]” the “light emission in brains” value [1] was “relatively weak light emission”.

With CC(C)Nc1ccc2nc(C3=N[C@@H](C(N)=O)CS3)sc2c1 [Compound 5, (S)-4,5-dihydro-2-(6-(isopropylamino)-benzo[d]thiazol-2-yl)thiazole-4-carboxamide] the “Photon flux after treatment with luciferin analogs” value ([1]; 4 μM) was 2.97E+05 p/s, the “signal as share of the D-luciferin signal” value ([1]; 4 μM, 25,000-fold lower dose) was roughly 30% and the “Photon flux after treatment with luciferin analogs” value ([1]; 20 μM) was 1.95E+06 p/s. The “Photon flux after treatment with luciferin analogs” value ([1]; 100 μM) was 7.84E+06 p/s, the “Photon flux after treatment with luciferin analogs” value ([1]; 500 μM) was 1.19E+07 p/s and the “photon flux relative to standard 100 mM D-luciferin” value ([1]; IP, 20 μM, 5000-fold lower dose) was “higher photon flux than the standard 100 mM D-luciferin”. For the same molecule, the “bioluminescence signal higher than standard D-luciferin imaging conditions” value ([1]; doses 200-fold and 1000-fold lower than standard D-luciferin dose) was 5 fold, the “total photon flux, average” value ([4]; group (1) treated with PF-3845) was 4.4×10^4 p/s and the “total photon flux, average” value ([4]; group (2) vehicle without PF-3845) was 1.3×10^7 p/s. For the same molecule, the “change of light output by FAAH inhibitor PF-3845 (group 1 vs group 2)” value ([4]; PF-3845 1 mg/mL (0.1 mL) IP 30 minutes before substrate) was “reduced by nearly three orders of magnitude”.

In the case of CCNc1ccc2nc(C3=N[C@@H](C(N)=O)CS3)sc2c1 [Compound 6, (S)-2-(6-(ethylamino)benzo[d]thiazol-2-yl)-4,5-dihydrothiazole-4-carboxamide], the “light emission in brains” value [1] is reported as “relatively strong light emission”.

In the case of NC(=O)c1cccc(-c2cccc(OC(=O)NC3CCCCC3)c2)c1 [URB-597, reference compound], the “inhibition of the FAAH-dependent bioluminescence signals of Compounds 1, 9, 10, 25 by FAAH inhibitor” value ([2]; 50 μM URB-597, 50 μM luciferin amide) is reported as “more than 100 fold”.

NC(=O)[C@H]1CSC(c2nc3cc4c(cc3s2)NCCC4)=N1 [Compound 14, (S)-2-(5,6,7,8-tetrahydrothiazolo[4,5-g]quinolin-2-yl)-4,5-dihydrothiazole-4-carboxamide] was tested, and the “Photon flux after treatment with luciferin analogs” value ([1]; 100 μM) was 1.43E+07 p/s and the “improved signal over 100 mM D-luciferin” value ([1]; 0.1 mM) was “more than 10 fold”.
